Values quoted from earlier work as cited in patent publication US8980889B2, “Pyrazole derivative” (Mochida Pharmaceutical Co., Ltd., priority 2013, dated 2015).

Experiments:
Settings in all cases: U.S. Patent Application No. 2003/0032579
[1] = system: rat
[2] = system: rat brain
[3] = system: rats

In the case of COc1ccc(Cc2nccc3cc(OC)c(OC)cc23)cc1OC [papaverine], the haloperidol-induced catalepsy [1] is given as “increases”, the “dopamine level in the rat brain” value [2] is given as “decreases” and the apomorphine-induced stereotypy [3] is given as “decreases”.
